Measured values as given in patent US20250089709A1, “CALCIUM PHOSPHATE NANOPARTICLES LOADED WITH JASMONATE TO INDUCE EFFICIENT PLANT DEFENCE RESPONSES” (UNIVERSIDAD DE GRANADA, priority 2021, published 2025).
In brackets after ≈: the same amount, converted by molar mass. Where two headings read alike, the source gives them in different places.

How the values were obtained:
B16-F10 cell line [1] = assay: In vitro cytotoxicity assay (MTS); type: cell-based; conditions: Mus musculus, 48 h, B16-F10 cells, 2 days incubation, read-out: IC50 (half inhibitory concentration, cell viability)
Method: Mouse skin melanoma (B16-F10, ATCC CRL-6322) cell line was purchased from the Cell Bank of CIC-UGR. B16-F10 cells were expanded in Eagle's minimum essential medium (EMEM) with Earle's balanced salt solution (EBSS) supplemented with 2 mM glutamine, and 10% foetal bovine serum (FBS), 1% nonessential amino acids (NEAA) and 1 mM sodium pyruvate (NaP) at 37° C. in a humidified atmosphere of 5% CO2.
Cells were detached from culture flasks by trypsinization, centrifuged and resuspended. Cell number and viability were assessed with the trypan-blue dye exclusion test. Then, 1.0·10^4 cells/well were seeded in a 96 flat transparent well and incubated at 37° C. in a humidified atmosphere of 5% CO2. […] After 2 days incubation, cell viability was evaluated by MTS assay using CellTiter 96® AQueous One Solution Reagent (Promega, Madison, WI) according to the manufacturer's instructions. Briefly, 20 μL of AQueous One Solution Reagent was added to each well and after 2 h of incubation, the absorbance at 490 nm was measured with a spectrophotometer (Infinite® 200 PRO NanoQuant, CIC-UGR). […] Each experiment was done in triplicate.
(§1) Statistical comparisons were analysed with GraphPad Prism software (version 6.0) using one-way or two-way ANOVA and Bonferroni's post hoc test. […] The half inhibitory concentrations (IC50) were calculated by the Graph Pad Prism, using the dose-response sigmoidal curves, p<0.05.

[2] = In vitro nano-MeJ protection assays (drops at 50° C., UV-Vis and Raman); type: physicochemical; conditions: dried drops after 24 hours at 50° C.
Method: Both of them were kept at 50° C. during 24 h. At scheduled times, the drops were observed using an iScope (Euromex) microscope, in bright field mode and under 40× objective. After 24 hours, the remained samples were analysed by Raman Spectroscopy (JASCO NRS-5100, Jasco International Co. Ltd, Japan) from CIC-UGR. The excitation line was provided by a diode laser emitting at a wavelength of 785 nm. The detector used is a Peltier cooled charge-couple device (CCD, 1024×256 pixels). Before the measurement, the Raman shift of the spectrometer was calibrated using the 520.7 cm-1 peak of crystalline silicon as standard. Each spectrum corresponds to the average of 3 acquisitions of 100 s each. The spectra were linearly base-line corrected for clarity. The same experiment was carried out by depositing on a crystallizer 30 drops of 100 μL of each sample to determine the ratio of protection. […] Then, the sample was centrifuged (12000 rpm, 10 minutes) to remove the nanoparticles before UV-Vis measurements. The ratio of protection (%) was calculated as MeJfinal/MeJinicial×100. Each test was performed in triplicates.

[3] = test system: Monastrell (Vitis vinifera L.) grapevines; assay: In vivo field experiments on vineyards, stilbene analysis in wines; conditions: for total stilbene concentration in wines: two applications
Method: The experiments were conducted in a randomized block design, in which five treatments were applied to three replicates, using 10 vines for each replication. Monastrell (Vitis vinifera L.) grapevines from experimental vineyards located in Cehegin (Murcia, Spain): were sprayed with five treatments, in order to evaluate nano-MeJ efficiency in the field. […] 200 mL of the product was foliarly applied to each plant at veraison. A second application was performed after 7 days. Then, when grapes reached their optimal maturity they were harvested and transported to the winery for winemaking. Vinifications were made in triplicate in 50-L stainless steel tanks using 50 kg of grapes, which were destemmed, crushed, and sulfited (8 g SO2/100 kg). Total acidity was corrected to 5.5 g/L with tartaric acid, and selected yeasts were added (Uvaferm VRB, Lallemand, 25 g/hL). The fermentative pomace contact period was 10 days during which the cap was punched down twice a day, and the temperature and must density were recorded. At the end of alcoholic fermentation, wines were pressed at 1.5 bars in a 75 L tank membrane press and packed in bag-in-box for further analysis.
The extraction method used was described by Guerrero et al. with some modifications. Briefly, 5 mL of wine were extracted with 5 mL of diethyl ether to which 25 μL of internal standard (Trans-4-Hydroxistilbene, 98%) were added. Samples were homogeneized with an Ultraturrax T-25 (Jankel Adnand Kunkel, IKA-Labortechnick, Germany) and stirred at 9600 rpm for 1 minute. […]
Stilbenes were identified and quantified by HPLC. Samples were analysed using a Waters2695 system equipped with a mass detector (Acquity QDA Waters). […] Stilbenes were quantified at 320 nm using trans-resveratrol, trans-piceid, piceatannol and ε-viniferin as external standards.
as §1

B16-F10 cell line [4] = conditions: read-out: MeJ needed to decrease cell viability in a half; same cell line (B16-F10), previous results; cited from earlier work
[5] = cited from earlier work
Monastrell grapevine = conditions: cited from earlier work

In the case of `CC/C=C\CC1C(=O)CCC1CC(=O)OC` (racemic) [MeJ, methyl jasmonate], the IC50 (B16-F10 cell line [1]) is reported as 2200 µM, the “Raman micro-analysis for MeJ signals” value [2] is reported as “did not show signals assignable to MeJ” and the “minimum concentration to observe important effects on stilbenes, elicitor conventionally applied” value ([3]; foliar application) is reported as 10 mM. For the same compound, the “total stilbene concentration in wines” value ([3]; foliar spray 5 mM MeJ (MeJ5) at veraison) was “not enough to produce the same enhancement in stilbene concentration”, the “total stilbene concentration in wines” value ([3]; foliar spray 10 mM MeJ (MeJ10) at veraison, vs non-treated control) was “significant (p<0.001) increase” and the IC50 (B16-F10 cell line [4]) was 2600 µM. The solubility in water [5] was 340 µg/mL (≈ 1520 µM), the “total stilbenes in wines” value (Monastrell grapevine; foliar application of 10 mM, vs non-treated (control) plants) was “significant increase” and the “foliar concentration needed to promote stilbene production in grapes and wines” value (Monastrell grapevine; previous field experiments) was 10 mM.
